Assays:
[1] = test system: Shionogi mouse mammary carcinoma cells; experiment: Antiandrogenic activity on DHT-stimulated Shionogi mouse mammary carcinoma cell number; assay type: cell-based
[2] = test system: ear sebaceous glands in the male hamster; experiment: Topical antiandrogenic activity, ear sebaceous glands model in the male hamster; assay type: in vivo, Golden Syrian hamster; conditions: Mesocricetus auratus, topical, 336 h, topical on left pinna, area of sebaceous glands of left ear, read-out: Ear Area Inhibition. Vs Control (%)
Description: • Column 2 represent the daily dose for 14 days of tested compound dissolved in ten μl solution of acetone:ethanol:propylene Glycol (1:1:2; v:v:v) applied onto a region between the two cartilage ridges of the ventral surface of left pinna. • Column 3 represents the percentage of inhibition of the area of the sebaceous glands of the left ear of the treated animals versus the area of the sebaceous glands of the left ear of the control animals.
C—In vivo Assessment of Topical Antiandrogenic Activity
The antiandrogenic activity of compounds for topical use was determined using the ear sebaceous glands model in the male hamster.
Male Golden Syrian Hamsters (SYR) of 110-120 g were obtained from Harlan Sprague-Dawley (Madison, USA) and housed up to 2 per plastic cage in a temperature (22±3° C.) and light (12 h light/day, lights on at 7h15)-controlled environment. The hamsters were fed with Certified Rodent Diet 5002 (pellet) and had access to tap water ad libitum. The animals were acclimatized for at least five days prior to beginning the study. Animals were randomly assigned to groups of eight hamsters. One group of hamsters were castrated under isoflurane-induced anesthesia on the day of dosing initiation (SD 1) and used as control group.
To evaluate the antiandrogenic activity, the tested compounds were applied topically on the inner part of the left ear, once daily, for 14 days. […] For animals of the castrated and intact control groups, one ten-μL vehicle was applied onto the left ear. No solution was applied on the right ear.
On Study Day 15, the hamsters were euthanized by cervical dislocation under isoflurane anesthesia. The left and right ears were collected attached together by the head skin, flat fixed on a paper and then immersed in 10% neutral buffered formalin. Punctures making a circular hole of 6 mm were made on the flat fixed ear in the region where the solution has been applied. These punch-made specimens were collected from each ear. Using a scalpel blade, the collected 6 mm round ear specimens were cut in the middle between the two cartilage ridges. The two equal parts of the ear round specimens were embedded in paraffin. After processing the tissue, the two parts were vertically embedded parallel to each other in such a way that the flat 6 mm area was facing out. From each paraffin block, one section (5 μm thick) was cut and collected on a glass slide. Thus, each slide contained two elongated sections of 6 mm length. Slides were stained with hematoxylin and eosin.
Using the video camera and the lens number X5 of the light microscope, the resulting field appearing on the screen has a length of 0.953 mm. When the first 6 mm long section was examined from the left to the right, the first and second fields were ignored and the third and fourth fields were captured for analysis by the image analyzer. Each field has the length of 0.953 mm. With the help of the screen mouse, the sebaceous glands within the whole field length (0.953 mm) were marked. Also, an area having the length of the whole field and the height between stratum granulosum and the upper edge of the cartilage was drawn.
The total area of the sebaceous glands (μm^2) in each examined field was calculated by the Image Analyser. We also measured the total area, which has the length of 0.953 mm and the height between stratum granulosum and the cartilage. In addition, the percentage of the area occupied by the glands was obtained. Thus, for each ear, two sections were cut and two fields from each section were analyzed. The total of the four readings was averaged and the mean standard error of the mean was calculated by the image analyzer. The results were expressed in μm^2 as the total surface of glands per field and also as percentage of the area occupied by the glands in the tissue.

In the case of `N#Cc1ccc(-c2c(F)cccc2F)cc1Cl` [EM-4977, 3-chloro-2′,6′-difluoro-biphenyl-4-carbonitrile], the IC50 ([1]; Mus musculus, read-out: Antiandrogenic activity IC50 (nM)) is reported as 12.8 nM, the “A = Ki OH-Flu/Ki compound” value ([1]; ratio of Ki of hydroxyflutamide versus tested compound, inhibition of DHT-stimulated Shionogi cell number, higher values preferable) is reported as 12 and the inhibition in vivo at 0.001 mg ([2]; dose 1 μg daily for 14 days) is reported as 25.9%. The inhibition in vivo at 0.003 mg ([2]; dose 3 μg daily for 14 days) was 48% and the inhibition in vivo at 0.01 mg ([2]; dose 10 μg daily for 14 days) was 73%.

— US6933321B2, “Antiandrogenic biphenyls” (Endorecherche, Inc., priority 2002, dated 2005)
